The record followed here is US8163755B2, “Hexahydrooxazinopterine compounds” (Takeda Pharmaceutical Company Limited, priority 2009, dated 2012).

Molecules are shown by their SMILES. Where a name gives a salt, the structure may show the parent alone.

In this assay the target is T1, human mTOR (Homo sapiens, UniProt P42345).
T1 construct: purchased Invitrogen
Description: Inhibition of mTOR (Example A, LanthaScreen TR-FRET, GFP-4E-BP1 substrate). The format is biochemical. To be noted: inhibition of human mTOR in the assay of Example A. The procedure:
Example A Inhibition of mTOR
Purified mTOR are purchased from Invitrogen. mTOR activity was determined using Invitrogen's LanthaScreen system. The inhibitory properties of compounds relative to mTOR may be determined using a black 384-well-plate format in the following buffer 50 mM Hepes, 10 mM NaCl, 10 mM MgCl2, 0.2 mM EDTA, 0.01% Brij35, 2 mM DTT at pH7.3. The test compound is prepared in DMSO using 2 fold serial dilutions for 11 data points which are added to the buffer so that each dilution contains 3% DMSO.
An Assay for mTOR Inhibition is as Follows:
Combine in each well 2 μl of 1.2 μM GFP-4E-BP1 (Invitrogen) and 150 μM ATP (in buffer), 2 μl of diluted test compound (3% DMSO in buffer), and 2 μl of 6 nM mTor in buffer. The reaction mixture is then incubated at room temperature for 30 min, and quenched by adding 40 mM ETDA with 4 nM Tb-anti-p4E-BP1 [pThr46] antibody in TR-FRET dilution buffer (Invitrogen). The plate is kept at room temperature for 1 hour and then read using PheraStar (BMG labtech) LanthaScreen mode.
pIC50 values, the negative of the log of the IC50, are calculated by non-linear curve fitting of the compound concentrations and percent of inhibition to the standard pIC50 equation.
Background: TR-FRET usually uses a lanthanide donor and a delayed reading to cut background.
The term IC50 denotes the midpoint of a concentration-inhibition curve. A high value points to weaker potency in that assay. Regarding `CNC(=O)Nc1ccc(-c2ncc3c(n2)N2CCOCC2(C)C(=O)N3CC2CC2)cc1` (stereo not shown) [Example 1, 1-(4-(5-(cyclopropylmethyl)-6a-methyl-6-oxo-5,6,6a,7,9,10-hexahydro-[1,4]oxazino[3,4-h]pteridin-2-yl)phenyl)-3-methylurea], the half-maximal inhibitory concentration (IC50) is less than 31.6 nM.
In the case of `CNC(=O)Nc1ccc(-c2ncc3c(n2)N2CCOC[C@]2(C)C(=O)N3CC2CC2)cc1` [Example 3, (R)-1-(4-(5-(cyclopropylmethyl)-6a-methyl-6-oxo-5,6,6a,7,9,10-hexahydro-[1,4]oxazino[3,4-h]pteridin-2-yl)phenyl)-3-methylurea] it was less than 31.6 nM.
In the case of `CNC(=O)Nc1ccc(-c2ncc3c(n2)N2CCOC[C@@]2(C)C(=O)N3CC2CC2)cc1` [Example 4, (S)-1-(4-(5-(cyclopropylmethyl)-6a-methyl-6-oxo-5,6,6a,7,9,10-hexahydro-[1,4]oxazino[3,4-h]pteridin-2-yl)phenyl)-3-methylurea] it was 31.6 to 1000 nM; in that of `CCNC(=O)Nc1ccc(-c2ncc3c(n2)N2CCOCC2(C)C(=O)N3CC2CC2)cc1` (stereo not shown) [Example 5, 1-(4-(5-(cyclopropylmethyl)-6a-methyl-6-oxo-5,6,6a,7,9,10-hexahydro-[1,4]oxazino[3,4-h]pteridin-2-yl)phenyl)-3-ethylurea, TFA salt], less than 31.6 nM.
Then `CC12COCCN1c1nc(-c3ccc(NC(=O)NC4CC4)cc3)ncc1N(CC1CC1)C2=O` (stereo not shown) [Example 6, 1-cyclopropyl-3-(4-(5-(cyclopropylmethyl)-6a-methyl-6-oxo-5,6,6a,7,9,10-hexahydro-[1,4]oxazino[3,4-h]pteridin-2-yl)phenyl)urea, TFA salt], with 31.6 to 1000 nM; and `CCNC(=O)Nc1ccc(-c2ncc3c(n2)N2CCOC[C@@]2(C)C(=O)N3CC2CC2)cc1` [Example 7, (S)-1-(4-(5-(cyclopropylmethyl)-6a-methyl-6-oxo-5,6,6a,7,9,10-hexahydro-[1,4]oxazino[3,4-h]pteridin-2-yl)phenyl)-3-ethylurea], with less than 31.6 nM.
In the case of `C[C@@]12COCCN1c1nc(-c3ccc(NC(=O)NC4CC4)cc3)ncc1N(CC1CC1)C2=O` [Example 9, (S)-1-cyclopropyl-3-(4-(5-(cyclopropylmethyl)-6a-methyl-6-oxo-5,6,6a,7,9,10-hexahydro-[1,4]oxazino[3,4-h]pteridin-2-yl)phenyl)urea], the concentration for half-maximal inhibition (IC50) is less than 31.6 nM.
In the case of `CNC(=O)Nc1ccc(-c2ncc3c(n2)N2CCOCC2(C)C(=O)N3Cc2ccn(C)n2)cc1` (stereo not shown) [Example 11, 1-methyl-3-(4-(6a-methyl-5-((1-methyl-1H-pyrazol-3-yl)methyl)-6-oxo-5,6,6a,7,9,10-hexahydro-[1,4]oxazino[3,4-h]pteridin-2-yl)phenyl)urea] it was 31.6 to 1000 nM.
`CNC(=O)Nc1ccc(-c2nc(N3CCOCC3)c3c(n2)N2CCOCC2(C)C(=O)N3C)cc1` (stereo not shown) [Example 14, 1-(4-(5,6a-dimethyl-4-morpholino-6-oxo-5,6,6a,7,9,10-hexahydro-[1,4]oxazino[3,4-h]pteridin-2-yl)phenyl)-3-methylurea] showed an IC50 of 31.6 to 1000 nM.
For the compound `CNC(=O)Nc1ccc(-c2ncc3c(n2)N2CCOCC2(C)C(=O)N3C(C)C)cc1` (stereo not shown) [Example 15, 1-(4-(5-isopropyl-6a-methyl-6-oxo-5,6,6a,7,9,10-hexahydro-[1,4]oxazino[3,4-h]pteridin-2-yl)phenyl)-3-methylurea], the IC50 was less than 31.6 nM.
Then `CNC(=O)Nc1ccc(-c2ncc3c(n2)N2CCOCC2(C)C(=O)N3CC2CCC2)cc1` (stereo not shown) [Example 16, 1-(4-(5-(cyclobutylmethyl)-6a-methyl-6-oxo-5,6,6a,7,9,10-hexahydro-[1,4]oxazino[3,4-h]pteridin-2-yl)phenyl)-3-methylurea], with less than 31.6 nM.
For the compound `CNC(=O)Nc1ccc(-c2ncc3c(n2)N2CCOCC2(C)C(=O)N3C2CC2)cc1` (stereo not shown) [Example 17, 1-(4-(5-cyclopropyl-6a-methyl-6-oxo-5,6,6a,7,9,10-hexahydro-[1,4]oxazino[3,4-h]pteridin-2-yl)phenyl)-3-methylurea], the IC50 was 31.6 to 1000 nM.
Then `CNC(=O)Nc1ccc(-c2ncc3c(n2)N2CCO[C@@H](C)[C@@]2(C)C(=O)N3CC2CC2)cc1` [Example 18, 1-(4-((6aS,7S)-5-(cyclopropylmethyl)-6a,7-dimethyl-6-oxo-5,6,6a,7,9,10-hexahydro-[1,4]oxazino[3,4-h]pteridin-2-yl)phenyl)-3-methylurea], with less than 31.6 nM; and `CNC(=O)Nc1ccc(-c2ncc3c(n2)N2C[C@@H](C)OC[C@]2(C)C(=O)N3CC2CC2)cc1` [Example 19, 1-(4-((6aR,9R)-5-(cyclopropylmethyl)-6a,9-dimethyl-6-oxo-5,6,6a,7,9,10-hexahydro-[1,4]oxazino[3,4-h]pteridin-2-yl)phenyl)-3-methylurea], with 31.6 to 1000 nM; and `CNC(=O)Nc1ccc(-c2ncc3c(n2)N2CCOCC2(C)C(=O)N3C(C)(C)C(=O)O)cc1` (stereo not shown) [Example 20, 2-methyl-2-(6a-methyl-2-(4-(3-methylureido)phenyl)-6-oxo-6a,7,9,10-tetrahydro-[1,4]oxazino[3,4-h]pteridin-5(6H)-yl)propanoic acid TFA salt], with greater than 1000 nM.
Then `CNC(=O)Nc1ccc(-c2ncc3c(n2)N2CCOCC2(C)C(=O)N3C[C@H](O)CO)cc1` (stereo partly drawn) [Example 22, 1-(4-(5-((S)-2,3-dihydroxypropyl)-6a-methyl-6-oxo-5,6,6a,7,9,10-hexahydro-[1,4]oxazino[3,4-h]pteridin-2-yl)phenyl)-3-methylurea], with 31.6 to 1000 nM; and `CNC(=O)Nc1ccc(-c2ncc3c(n2)N2CCOC[C@@]2(C)C(=O)N3C[C@H](O)CO)cc1` [Example 23], with 31.6 to 1000 nM; and `CNC(=O)Nc1ccc(-c2ncc3c(n2)N2CCOC[C@]2(C)C(=O)N3C[C@H](O)CO)cc1` [Example 24], with greater than 1000 nM.
Then `CNC(=O)Nc1ccc(-c2ncc3c(n2)N2CCOC[C@@]2(C)C(=O)N3C2CCOCC2)cc1` [Example 26, (S)-1-methyl-3-(4-(6a-methyl-6-oxo-5-(tetrahydro-2H-pyran-4-yl)-5,6,6a,7,9,10-hexahydro-[1,4]oxazino[3,4-h]pteridin-2-yl)phenyl)urea], with less than 31.6 nM; and `CNC(=O)Nc1ccc(-c2ncc3c(n2)N2CCOCC2(C)C(=O)N3CC(C)(C)C)cc1` (stereo not shown) [Example 28, 1-methyl-3-(4-(6a-methyl-5-neopentyl-6-oxo-5,6,6a,7,9,10-hexahydro-[1,4]oxazino[3,4-h]pteridin-2-yl)phenyl)urea], with less than 31.6 nM.
In turn, `CC12COCCN1c1nc(-c3ccc(NC(=O)NC4CC4)cc3)ncc1N(C1CCOC1)C2=O` (stereo not shown) [Example 30, 1-cyclopropyl-3-(4-(6a-methyl-6-oxo-5-(tetrahydrofuran-3-yl)-5,6,6a,7,9,10-hexahydro-[1,4]oxazino[3,4-h]pteridin-2-yl)phenyl)urea] had an IC50 of less than 31.6 nM.
On to `CNC(=O)Nc1ccc(-c2ncc3c(n2)N2CCOCC2(C)C(=O)N3CCCOC)cc1` (stereo not shown) [Example 35, 1-(4-[5-(3-methoxypropyl)-6a-methyl-6-oxo-5,6,6a,7,9,10-hexahydro[1,4]oxazino[3,4-h]pteridin-2-yl]phenyl)-3-methylurea], for which the IC50 was less than 31.6 nM.
With `CNC(=O)Nc1ccc(-c2ncc3c(n2)N2CCOC[C@@]2(C)C(=O)N3CCCOC)cc1` [Example 36, (S)-1-(4-[5-(3-methoxypropyl)-6a-methyl-6-oxo-5,6,6a,7,9,10-hexahydro[1,4]oxazino[3,4-h]pteridin-2-yl]phenyl)-3-methylurea], the IC50 was less than 31.6 nM.
Then `COCCCN1C(=O)[C@]2(C)COCCN2c2nc(-c3ccc(NC(=O)NC4CC4)cc3)ncc21` [Example 41, (S)-1-cyclopropyl-3-(4-(5-(3-methoxypropyl)-6a-methyl-6-oxo-5,6,6a,7,9,10-hexahydro-[1,4]oxazino[3,4-h]pteridin-2-yl)phenyl)urea], with less than 31.6 nM.
`CC12COCCN1c1nc(-c3ccc(NC(=O)NC4CC4)cc3)ncc1N(C1CCS(=O)(=O)CC1)C2=O` (stereo not shown) [Example 45, 1-cyclopropyl-3-(4-[5-(1,1-dioxidotetrahydro-2H-thiopyran-4-yl)-6a-methyl-6-oxo-5,6,6a,7,9,10-hexahydro[1,4]oxazino[3,4-h]pteridin-2-yl]phenyl)urea] showed an IC50 of 31.6 to 1000 nM.
`CC12COCCN1c1nc(-c3ccc(NC(=O)NC4CC4)cc3)ncc1N(CCCS(C)(=O)=O)C2=O` (stereo not shown) [Example 46, 1-cyclopropyl-3-(4-(6a-methyl-5-(3-(methylsulfonyl)propyl)-6-oxo-5,6,6a,7,9,10-hexahydro-[1,4]oxazino[3,4-h]pteridin-2-yl)phenyl)urea] showed a concentration for half-maximal inhibition (IC50) of less than 31.6 nM.
`CC(F)(F)CN1C(=O)C2(C)COCCN2c2nc(-c3ccc(NC(=O)NC4CC4)cc3)ncc21` (stereo not shown) [Example 47, 1-cyclopropyl-3-(4-(5-(2,2-difluoropropyl)-6a-methyl-6-oxo-5,6,6a,7,9,10-hexahydro-[1,4]oxazino[3,4-h]pteridin-2-yl)phenyl)urea] showed a concentration for half-maximal inhibition (IC50) of less than 31.6 nM.
As for `CC(F)(F)CN1C(=O)[C@]2(C)COCCN2c2nc(-c3ccc(NC(=O)NC4CC4)cc3)ncc21` [Example 49, (S)-1-cyclopropyl-3-(4-(5-(2,2-difluoropropyl)-6a-methyl-6-oxo-5,6,6a,7,9,10-hexahydro-[1,4]oxazino[3,4-h]pteridin-2-yl)phenyl)urea], the IC50 is less than 31.6 nM.
